The source of these data is patent US7074422B2, “Fungicidal mixtures” (BASF Aktiengesellschaft, priority 2002, dated 2006).

The assay has as its system Plasmopara viticola. Put plainly: Activity against Peronospora of vines caused by Plasmopara viticola (persistence test on potted vines). In kind it is in vivo. Conditions: individual active compound, vines "Müller-Thurgau", inoculated 3 days after spraying. As to the method:
The active compounds were prepared separately or together as a stock solution comprising 0.25% of active compound in acetone or DMSO. 1% by weight of the emulsifier Uniperol® EM (wetting agent having emulsifying and dispersing action based on ethoxylated alkylphenols) was added, and the mixture was diluted with water to the desired concentration.
Evaluation is carried out by determining the infected leaf areas in percent. These percentages are converted into efficacies. The expected efficacies of the active compound mixtures are determined using Colby's formula [R. S. Colby, Weeds 15, 20-22 (1967)] and compared with the observed efficacies.
Colby's formula: E=x+y−x.y/100 • E expected efficacy, expressed in % of the untreated control, when using the mixture of the active compounds A and B at the concentrations a and b • x efficacy, expressed in % of the untreated control, when using active compound A at a concentration of a • y efficacy, expressed in % of the untreated control, when using active compound B at a concentration of b
The efficacy (E) is calculated as follows using Abbot's formula: E=(1−α/β)·100 • α corresponds to the fungal infection of the treated plants in % and • β corresponds to the fungal infection of the untreated (control) plants in %
An efficacy of 0 means that the infection level of the treated plants corresponds to that of the untreated control plants; an efficacy of 100 means that the treated plants were not infected.
Leaves of potted vines of the cultivar “Müller-Thurgau” were sprayed to runoff point with an aqueous suspension having the concentration of active compound stated below. To be able to assess the persistence of the substances, the plants were, after the spray coating had dried on, placed in a green house for 3 days. Only then were the leaves inoculated with an aqueous zoospore suspension of Plasmopara viticola. The vines were then initially placed in a water-vapor-saturated chamber at 24° C. for 48 hours and then in a greenhouse at 20-30° C. for 5 days. After this period of time, the plants were again placed in a moist chamber for 16 hours to promote sporangiophore eruption. The extent to which the infection had developed on the undersides of the leaves was then determined visually.

Molecules are shown by their SMILES.

Turning to `CCCOC(=O)NCCN(C)C` [I, propyl (2-dimethylaminoethyl)carbamate], the “Efficacy in % of the untreated control” value reads like this: (3.75 ppm in the spray liquor) 0 % of the untreated control; (7.5 ppm in the spray liquor) 0 % of the untreated control; (15 ppm in the spray liquor) 0 % of the untreated control; (30 ppm in the spray liquor) 0 % of the untreated control.

As to `N#Cc1sc2c(=O)c3ccccc3c(=O)c=2sc1C#N` [II, dithianon], where the note is “30 ppm in the spray liquor”, the “Efficacy in % of the untreated control” value is 89 % of the untreated control.
